Test results from patent US8410116B2, “Bis(styryl)pyrimidine or bis(styryl)benzene compounds, pharmaceutically acceptable salts thereof, preparation method thereof, and pharmaceutical composition for prevention or treatment of diseases featuring amyloids comprising the same as an active ingredient” (Korea Institute of Science and Technology, priority 2009, dated 2013).

Assays:
beta amyloid (1-42) = beta amyloid (1-42) (Homo sapiens, UniProt P05067); experiment: Inhibitory activity against beta amyloid fibril formation (ThT fluorescence); format: biochemical; settings: for remaining activity at 10 µM: compound 10 μM, beta amyloid (1-42) 25 μM, 1 hr room temperature, beta amyloid alone (control) = 100
Protocol: The compounds of the present invention were assayed for inhibitory activity against the formation of beta amyloid fibrils as a function of ThT fluorescence intensity as follows. Beta amyloid (1-42) and each of the compounds of Examples 1 to 27 were dissolved in DMSO and diluted with PBS (phosphate-buffered saline, pH 7.4). The final concentrations of beta amyloid (1-42) (control) and each of the compounds of Examples 1 to 27 were set at 25 μM and 10 μM, respectively. The dilutions were incubated at room temperature for 1 hr before a solution of thioflavin T (ThT, 5 μM, pH 8.5) in glycin-NaOH buffer was added thereto. Fluorescence was measured at 450 nm for excitation (slit 10 nm) and […] for emission (slit 10 nm) on 96-well microplates using a multilabel fluorescence counter.

HT-22 cells = experiment: Cytotoxicity in HT-22 cell (MTT); format: cell-based, murine; settings: compound 25 μM, 18 hrs
Protocol: The following experiment was performed with HT-22 cells in order to examine the cytotoxicity of the compounds of the Examples in accordance with the present invention.
(§1) The murine hippocampal neuronal cell line HT-22 was incubated at 37° C. in DMEM (Dulbecco's Modified Eagle's Medium) supplemented with 10% FBS (fetal bovine serum) and 1% penicillin/streptomycin in a 5% CO2 incubator. Before testing, HT-22 cells were seeded at a density of 5×10^3 cells/well onto 96-well plates containing serum-free DMEM and incubated for 1 hr. Afterwards, each of the compounds of Examples 1 to 27 was added at a concentration of 25 μM to each well before incubation for 18 hrs. 5 mg/ml MTT (3-(4,5-dimethyl-2-thiozolyl)-2,5-diphenyl-2H-tetrazolium bromide) solution was added in an amount of 15 μl per well and incubated for 4 hrs. A solubilization solution (10% SDS, 50% dimethylformamide, pH 4.7) was added in an amount of 100 μl to each well, followed by incubation for 18 hrs. Absorbance at 570 nm/630 nm was read on a microplate reader.

[1] = test system: HT-22 cells incubated with beta amyloid (Aβ25-35); experiment: Alleviating effect on beta amyloid toxicity in HT-22 cells (MTT); format: cell-based, murine; settings: Mus musculus, compound pre-incubated 1 hr, then 25 μM beta amyloid (Aβ25-35) for 18 hrs, Aβ25-35 line = toxin alone, read-out: Cell Survival (%)
Protocol: as §1
The following experiment was performed in order to examine the ability of the compounds of the Examples in accordance with the present invention to alleviate beta amyloid toxicity. HT-22 cells were cultured and incubated with the compounds of Examples 1 to 27 for 1 hr in the same manner as in Example 2. Cell necrosis was induced by beta amyloid toxicity. For this, the cells were incubated with 25 μM of beta amyloid (Aβ25-35) for 18 hrs. Subsequently, a 5 mg/ml MTT solution was added in an amount of 15 μl to each well, followed by incubation for 4 hrs. Then, the cells were again incubated for 18 hrs with 100 μl/well of the solubilization solution. Absorbance at 570 nm/630 nm was read on a microplate reader.

beta amyloid (1-42), sequence (P05067 672-713 limits assumed): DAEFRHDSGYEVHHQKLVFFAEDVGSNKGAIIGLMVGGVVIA

| remaining activity at 10 µM (beta amyloid (1-42)) | Inhibitory activity against fibril formation (in words) (beta amyloid (1-42); Table 3) | SMILES | Cell Survival (%) (HT-22 cells) | viability at 25 µM [1] |
| --- | --- | --- | --- | --- |
| 153 ± 16.3% | – | CSc1nc(/C=C/c2cccc(O)c2)cc(/C=C/c2cccc(O)c2)n1 [Ex. 15, 2-methylthio-(E,E)-4,6-bis(3′-hydroxystyryl)pyrimidine] | 43.7 ± 6.6% | 39.6 ± 0.4% |
| 21 ± 2.4% | – | COc1cc(/C=C/c2cc(O)cc(/C=C/c3ccc(O)c(OC)c3)c2)ccc1O [Ex. 24, (E,E)-3,5-bis(4′-hydroxy-3′-methoxystyryl)phenol] | 80.9 ± 13.1% | 39.9 ± 9.5% |
| 24.8 ± 11.1% | – | COc1ccc(/C=C/c2cc(/C=C/c3ccc(OC)c(O)c3)nc(SC)n2)cc1O [Ex. 17, 2-methylthio-(E,E)-4,6-bis(3′-hydroxy-4′-methoxystyryl)pyrimidine] | 78.8 ± 9.3% | 78.3 ± 0.4% |
| 25.9 ± 7.3% | – | COc1nc(/C=C/c2ccc(O)c(N(C)C)c2)cc(/C=C/c2ccc(O)c(N(C)C)c2)n1 [Ex. 12, 2-methoxy-(E,E)-4,6-bis[4′-hydroxy-3′-(N,N-dimethylamino)styryl]pyrimidine] | 96.6 ± 13.7% | 59 ± 5.7% |
| 92.9 ± 12.4% | – | Oc1cccc(/C=C/c2cc(O)cc(/C=C/c3cccc(O)c3)c2)c1 [Ex. 23, (E,E)-3,5-bis(3′-hydroxystyryl)phenol] | 59.2 ± 15.4% | 47.7 ± 11.1% |
| 25.8 ± 5.8% | – | CN(C)c1cc(/C=C/c2cc(O)cc(/C=C/c3ccc(O)c(N(C)C)c3)c2)ccc1O [Ex. 26, (E,E)-3,5-bis[4′-hydroxy-3′-(N,N-dimethylamino)styryl]phenol] | 66.0 ± 12.1% | 47.4 ± 0.6% |
| 32.6 ± 7.3% | – | COc1nc(/C=C/c2ccc(O)cc2)cc(/C=C/c2ccc(O)cc2)n1 [Ex. 8, 2-methoxy-(E,E)-4,6-bis(4′-hydroxystyryl)pyrimidine] | 101.2 ± 31.8% | 100 ± 7% |
| 32.4 ± 12.5% | – | COc1cc(/C=C/c2cc(/C=C/c3ccc(O)c(OC)c3)nc(SC)n2)ccc1O [Ex. 16, 2-methylthio-(E,E)-4,6-bis(4′-hydroxy-3′-methoxystyryl)pyrimidine] | 79.0 ± 7.9% | 49 ± 4.2% |
| 36.1 ± 10.1% | – | CN(C)c1cc(/C=C/c2cccc(/C=C/c3ccc(O)c(N(C)C)c3)c2)ccc1O [Ex. 20, (E,E)-1,3-bis[4′-hydroxy-3′-(N,N-dimethylamino)styryl]benzene] | 95.7 ± 8.3% | 45.8 ± 9.1% |
| 9.6 ± 3.7% | remarkable inhibitory activity | COc1nc(/C=C/c2ccc(N(C)C)c(O)c2)cc(/C=C/c2ccc(N(C)C)c(O)c2)n1 [Ex. 13, 2-methoxy-(E,E)-4,6-bis[3′-hydroxy-4′-(N,N-dimethylamino)styryl]pyrimidine] | 101.4 ± 2.5% | 67.4 ± 5.1% |
| 32 ± 11.6% | – | COc1nc(/C=C/c2ccc(O)c(OC)c2)cc(/C=C/c2ccc(O)c(OC)c2)n1 [Ex. 10, 2-methoxy-(E,E)-4,6-bis(4′-hydroxy-3′-methoxystyryl)pyrimidine] | 75.2 ± 12.5% | 71.7 ± 14.8% |
| 19.3 ± 1.1% | – | Oc1ccc(/C=C/c2cc(O)cc(/C=C/c3ccc(O)cc3)c2)cc1 [Ex. 22, (E,E)-3,5-bis(4′-hydroxystyryl)phenol] | 37.4 ± 4.7% | 50.6 ± 10.1% |
| 45 ± 9.2% | – | COc1nc(/C=C/c2ccc(OC)c(O)c2)cc(/C=C/c2ccc(OC)c(O)c2)n1 [Ex. 11, 2-methoxy-(E,E)-4,6-bis(3′-hydroxy-4′-methoxystyryl)pyrimidine] | 98.4 ± 2.7% | 66.2 ± 11.5% |
| 15.5 ± 3.8% | – | COc1ccc(/C=C/c2cc(O)cc(/C=C/c3ccc(OC)c(O)c3)c2)cc1O [Ex. 25, (E,E)-3,5-bis(3′-hydroxy-4′-methoxystyryl)phenol] | 73.5 ± 14.1% | 43.2 ± 10% |
| 21.4 ± 10.3% | – | CSc1nc(/C=C/c2ccc(O)c(N(C)C)c2)cc(/C=C/c2ccc(O)c(N(C)C)c2)n1 [Ex. 18, 2-methylthio-(E,E)-4,6-bis[4′-hydroxy-3′-(N,N-dimethylamino)styryl]pyrimidine] | 77.3 ± 15.1% | 50.9 ± 5.7% |
| 129 ± 11.6% | – | COc1nc(/C=C/c2cccc(O)c2)cc(/C=C/c2cccc(O)c2)n1 [Ex. 9, 2-methoxy-(E,E)-4,6-bis(3′-hydroxystyryl)pyrimidine] | 45.9 ± 4.2% | 47.7 ± 3.3% |
| 11.2 ± 4.2% | – | CSc1nc(/C=C/c2ccc(N(C)C)c(O)c2)cc(/C=C/c2ccc(N(C)C)c(O)c2)n1 [Ex. 19, 2-methylthio-(E,E)-4,6-bis[3′-hydroxy-4′-(N,N-dimethylamino)styryl]pyrimidine] | 85.3 ± 8.1% | 69.7 ± 0.4% |
| 35.7 ± 7% | – | Oc1ccc(/C=C/c2cc(/C=C/c3ccc(O)cc3)ncn2)cc1 [Ex. 4, (E,E)-4,6-bis(4′-hydroxystyryl)pyrimidine] | 104.2 ± 7.1% | 81 ± 1.2% |
| 44 ± 8.3% | – | CN(C)c1ccc(/C=C/c2cccc(/C=C/c3ccc(N(C)C)c(O)c3)c2)cc1O [Ex. 21, (E,E)-1,3-bis[3′-hydroxy-4′-(N,N-dimethylamino)styryl]benzene] | 100.8 ± 7.6% | 52.8 ± 7.2% |
| 32.1 ± 1.1% | – | COc1ccc(/C=C/c2cccc(/C=C/c3ccc(OC)c(O)c3)c2)cc1O [Ex. 3, (E,E)-1,3-Bis(3′-hydroxy-4′-methoxystyryl)benzene] | 69.5 ± 4.2% | 54.7 ± 5.3% |
| 85.9 ± 19.7% | – | Oc1cccc(/C=C/c2cc(/C=C/c3cccc(O)c3)ncn2)c1 [Ex. 5, (E,E)-4,6-bis(3′-hydroxystyryl)pyrimidine] | 142.5 ± 5.6% | 43.5 ± 13.4% |
| 32.6 ± 7.4% | – | CSc1nc(/C=C/c2ccc(O)cc2)cc(/C=C/c2ccc(O)cc2)n1 [Ex. 14, 2-methylthio-(E,E)-4,6-bis(4′-hydroxystyryl)pyrimidine] | 65.3 ± 6.0% | 34.2 ± 4% |
| 16.7 ± 0.7% | – | CN(C)c1ccc(/C=C/c2cc(O)cc(/C=C/c3ccc(N(C)C)c(O)c3)c2)cc1O [Ex. 27, (E,E)-3,5-bis[3′-hydroxy-4′-(N,N-dimethylamino)styryl]phenol] | 64.4 ± 4.2% | 50.5 ± 3.9% |
